Assay results from the supplement of paper PMC11821682.

What was measured:
[1] = tested on: Danio rerio embryo; assay: LEL embryonic photomotor response 24 hpf
Protocol: (§1)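 ZBEscreen: dechorionated Tropical 5D zebrafish embryos were exposed from 4 hpf in 96-well plates (1% DMSO, 28 °C). All compounds were first tested at 100 µM; hits were retested at 0.005-100 µM. Morphology and mortality were scored at 120 hpf and fitted as BMC10 (3-parameter log-logistic, extra risk). The embryonic photomotor response at 24 hpf and the larval photomotor response at 120 hpf are given as lowest effect levels (K-S test, p<0.01). NA = not significant up to 100 µM; NT = not tested.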

[2] = tested on: Danio rerio embryo; assay: BMC10 mortality 24-120 hpf; higher = less toxic
Protocol: as §1

[3] = tested on: Danio rerio embryo; assay: LEL larval photomotor response dark phase 120 hpf
Protocol: as §1

[4] = tested on: Danio rerio embryo; assay: BMC10 any morphological effect or mortality at 120 hpf; higher = less toxic
[5] = tested on: HL-60; assay: Cell Health Index (toxicity pseudo-probability over dose series) (index 0-1); higher = more cytotoxic / cell stress;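 note: HL-60 cells exposed 4 h at 37 °C to ten threefold dilutions spanning 5 nM to 100 µM, multiparametric flow cytometry features scored by machine-learning classification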

| Compound | LEL embryonic photomotor response 24 hpf [1] | BMC10 mortality 24-120 hpf [2] | LEL larval photomotor response dark phase 120 hpf [3] | BMC10 any morphological effect or mortality [4] | Cell Health Index [5] |
| --- | --- | --- | --- | --- | --- |
| CC(=O)c1cc([N+](=O)[O-])c(Sc2cccc(Cl)c2Cl)s1 | > 100 µM | 27.7 µM | > 100 µM | 0.246 µM | 0.789 |
| O=c1cc(-c2cccc3c2Sc2ccccc2S3)oc(N2CCOCC2)c1 | 11.1 µM | 9.46 µM | > 100 µM | 5.74 µM | 0.663 |
| Cl.Cl.OCCOCCN1CCN(Cc2cccc(Oc3ccccc3)c2)CC1 | 33.3 µM | 43.1 µM | 33.3 µM | 36.5 µM | 0.385 |
| COc1ccc2c(c1)CC[C@@H]1[C@@H]2CC[C@]2(C)[C@@H](NCCCCCCN3C(=O)C=CC3=O)CC[C@@H]12 | 11.1 µM | 0.101 µM | > 100 µM | 0.134 µM | 0.348 |
| C=C[C@H](OC(C)=O)c1ccc(OC(C)=O)cc1 (racemic) [(±)-1'-Acetoxychavicol acetate] | > 100 µM | 1.96 µM | > 100 µM | 1.32 µM | 0.778 |
| COC(=O)C1=C(C)N=C(c2ncc(F)cc2F)NC1c1ccc(F)cc1Cl (racemic) [(±)-BAY 41-4109] | 11.1 µM | 12.6 µM | > 100 µM | 8.25 µM | 0.592 |
| CN1CCN(C(c2ccc(Cl)cc2)c2ccc(Cl)cc2)CC1 [1-[bis(4-chlorophenyl)methyl]-4-methyl-piperazine] | 11.1 µM | 16.1 µM | > 100 µM | 12.6 µM | 0.934 |
| CC(=O)c1c(O)cc(O)c(C(C)=O)c1O [2,4-Diacetylphloroglucinol] | 3.7 µM | 3.32 µM | > 100 µM | 1.45 µM | 0.669 |
| O[C@H]1[C@@]2([H])[C@](CC[C@]2([H])[C@](O)(C)CC/C=C(C)/C)(C)[C@]3(C)CC[C@]4([H])[C@@](CC[C@H](O[C@]5([H])O[C@H](CO)[C@@H](O)[C@H](O)[C@H]5O)C4(C)C)(C)[C@@]3([H])C1 [20(S)-Ginsenoside Rh2] | 11.1 µM | 9.35 µM | > 100 µM | > 100 µM | 0.787 |
| CC1(C)[C@@H](O)CC[C@@]2(C)[C@@]1([H])[C@@H](O)C[C@]3(C)[C@]2([H])C[C@@H](O)[C@@]4([H])[C@@]3(C)CC[C@]4([H])[C@@](C)(O)CC/C=C(C)/C [20(S)-Protopanaxatriol] | 33.3 µM | 25.7 µM | > 100 µM | 16.2 µM | 0.803 |
| Cc1sc2c(c1C)C(c1ccc(Cl)cc1)=N[C@@H](CC(=O)OC(C)(C)C)c1nnc(C)n1-2 [(+)-JQ1] | 3.7 µM | 1.15 µM | > 100 µM | 1.13 µM | 0.87 |
| Cc1cc(Nc2nc(N[C@@H](C)c3ccc(F)cc3)c(C#N)cc2F)n[nH]1 [AZ-960] | 3.7 µM | 1.95 µM | > 100 µM | 1.27 µM | 0.78 |
| O=C1c2cccc(O)c2C(=O)c2c(O)cc(CO)cc21 [Aloe-emodin] | 3.7 µM | 17.1 µM | > 100 µM | 9.08 µM | 0.198 |
| CCOC(=O)c1ccc(OC(=O)CCCCCNC(=N)N)cc1.CS(=O)(=O)O [Gabexate] | > 100 µM | – | > 100 µM | > 100 µM | 0.22 |
| CCS(=O)(=O)Nc1ccc2c(c1)/C(=C(/Nc1ccc(CN3CCCCC3)cc1)c1ccccc1)C(=O)N2 [Hesperadin] | 3.7 µM | – | > 100 µM | 2.02 µM | 0.882 |
| OC1=CC(OC)=C(C(CC(C2=CC=C(O)C=C2)O3)=O)C3=C1C/C=C(C)/C (configuration not stated) [Isoxanthohumol] | > 100 µM | – | > 100 µM | > 100 µM | 0.183 |
| CCC(=O)c1ccc(F)c([C@@H]2C[C@@H]2NC(=O)Nc2ccc(C#N)cn2)c1O [MIV-150] | > 100 µM | – | > 100 µM | > 100 µM | 0.306 |
| CC(C)(C)C1=C(O)C(C(C)(C)C)=CC(/C=C(C#N)\C#N)=C1 [Malonoben] | 0.14 µM | – | > 100 µM | > 100 µM | 0.861 |
| O=C1CCC[C@@H]2[C@H]3CCCN4CCC[C@@H](CN12)[C@@H]34 [Matrine] | > 100 µM | – | > 100 µM | > 100 µM | 0.14 |
| CC1(C)CC(NC(=O)C(=O)Nc2ccc(Cl)cc2)CC(C)(C)N1 [NBD-556] | 100 µM | – | 11.1 µM | 45.7 µM | 0.302 |
| CS(=O)(=O)O.CS(=O)(=O)O.N=C(N)Nc1ccc(C(=O)Oc2ccc3cc(C(=N)N)ccc3c2)cc1 [Nafamostat] | > 100 µM | – | > 100 µM | > 100 µM | 0.422 |

| Compound | LEL embryonic photomotor response 24 hpf [1] | BMC10 mortality 24-120 hpf [2] | LEL larval photomotor response dark phase 120 hpf [3] | BMC10 any morphological effect or mortality [4] | Cell Health Index [5] |
| --- | --- | --- | --- | --- | --- |
| COc1cc(-c2oc3cc(O)cc(O)c3c(=O)c2O[C@@H]2O[C@H](CO[C@@H]3O[C@@H](C)[C@H](O)[C@@H](O)[C@H]3O)[C@@H](O)[C@H](O)[C@H]2O)ccc1O [Narcissoside] | > 100 µM | – | > 100 µM | > 100 µM | 0.248 |
| CCC(CC)O[C@@H]1C=C(C(=O)O)C[C@H](N)[C@H]1NC(C)=O [Oseltamivir acid] | 0.046 µM | – | > 100 µM | > 100 µM | 0.174 |
| CC(=O)c1c(O)cc(O)cc1O.O [Phloroacetophenone] | > 100 µM | – | > 100 µM | > 100 µM | 0.231 |
| COc1cc(NC(C)CCCN)c2ncccc2c1.O=P(O)(O)O.O=P(O)(O)O (configuration not stated) [Primaquine] | > 100 µM | – | > 100 µM | > 100 µM | 0.352 |
| CC(C)(Sc1cc(C(C)(C)C)c(O)c(C(C)(C)C)c1)Sc1cc(C(C)(C)C)c(O)c(C(C)(C)C)c1 [Probucol] | 0.005 µM | – | > 100 µM | > 100 µM | 0.134 |
| Oc1cc(O)c2c(c1)O[C@H](c1ccc(O)c(O)c1)[C@H](O)[C@H]2c1c(O)cc(O)c2c1O[C@H](c1ccc(O)c(O)c1)[C@@H](O)C2 [Procyanidin B1] | > 100 µM | – | > 100 µM | > 100 µM | 0.406 |
| O=c1ccc2cc3ccoc3cc2o1 [Psoralen] | 100 µM | – | 33.3 µM | 29.2 µM | 0.105 |
| O.O=c1c(O)c(-c2ccc(O)c(O)c2)oc2cc(O)cc(O)c12 [Quercetin] | > 100 µM | – | > 100 µM | > 100 µM | 0.461 |
| C=C[C@H]1C[N@@]2CC[C@H]1C[C@@H]2[C@@H](O)c1ccnc2ccc(OC)cc12 [Quinidine] | > 100 µM | – | > 100 µM | > 100 µM | 0.197 |
| FC(F)(F)c1cc(C(F)(F)F)c2ccc3nc(-c4nnco4)cn3c2n1 [RO8191] | 11.1 µM | – | 11.1 µM | 26.9 µM | 0.274 |
| O=C(Nc1ccccc1F)N[C@H]1N=C(c2ccccc2)c2ccccc2NC1=O [RSV-604] | > 100 µM | – | > 100 µM | > 100 µM | 0.368 |
| Cc1ccc(C2Nc3ccccc3C(=O)N2c2ccccc2)s1 (configuration not stated) [Retro-2] | 0.14 µM | – | > 100 µM | 0.795 µM | 0.241 |
| O=C(Nc1c(Cl)cncc1Cl)c1ccc(OC(F)F)c(OCC2CC2)c1 [Roflumilast] | 0.015 µM | – | 0.14 µM | > 100 µM | 0.296 |
| COc1c2c(cc3c1-c1c(cc4c(c1OC)OCO4)CC(C)C(C)C3)OCO2 (configuration not stated) [Schisandrin C] | 11.1 µM | – | > 100 µM | 2.06 µM | 0.61 |
| C/C=C(/C)C(=O)O[C@H]1c2cc(OC)c(OC)c(OC)c2-c2c(cc3c(c2OC)OCO3)C[C@H](C)[C@]1(C)O [Schisantherin B] | 100 µM | – | > 100 µM | 65.9 µM | 0.365 |
| C[C@H]1CC[C@@]2(OC1)O[C@H]1C[C@H]3[C@@H]4CC[C@@H]5C[C@@H](O[C@@H]6O[C@H](CO)[C@H](O)[C@H](O)[C@H]6O[C@@H]6O[C@H](CO)[C@@H](O)[C@H](O)[C@H]6O)CC[C@]5(C)[C@H]4CC[C@]3(C)[C@H]1[C@@H]2C [Timosaponin AIII] | > 100 µM | – | > 100 µM | > 100 µM | 0.935 |
| N#C/C(=C\c1ccc(O)c(O)c1)C(=O)NCCCc1ccccc1 [Tyrphostin AG 555] | > 100 µM | – | > 100 µM | 1.13 µM | 0.494 |
| Ic1cccc(/C=N/Nc2nc(N3CCOCC3)nc(N(c3ccccc3)c3ccccc3)n2)c1 [Vacuolin-1] | 33.3 µM | – | > 100 µM | > 100 µM | 0.271 |
| Cc1ccc(NC(=O)C(=O)NC2CC(C)(C)NC(C)(C)C2)cc1 [YYA-021] | 100 µM | – | 33.3 µM | > 100 µM | 0.184 |
| Cc1cc(C)nc(NS(=O)(=O)c2ccc(NC(=S)NC(=O)COc3ccc(Br)cc3Cl)cc2)n1 [ZCL 278] | 100 µM | – | > 100 µM | > 100 µM | 0.221 |
